Measured values reported in US8889704B2 (Array BioPharma Inc., priority 2011, dated 2014).
Where a name gives a salt, the structure may show the parent alone.

Assays:
Assay type in all cases: biochemical
PIM-1 = PIM-1 (Homo sapiens, UniProt P11309); experiment: Enzyme PIM-1 Assay ([33P]ATP incorporation into PIM2tide, filter plate); conditions: averaged IC50; 35 μM ATP, 7.5 μM PIM2tide, 0.25 nM PIM-1, 60 min at 22° C.
Procedure, shortened: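 Radiometric assay: 0.25 nM PIM-1 phosphorylates 7.5 μM PIM2tide with 35 μM [γ-33P]ATP in 20 mM MOPS pH 7.4, 10 mM MgCl2, 1 mM DTT, 0.005% Tween-20, 60 min at 22 °C. Product captured on P81 filters, scintillation counted; 10-point 3-fold curve from 10 μM top, 2% DMSO, IC50 by 4-parameter logistic fit of POC.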

[1] = biological target: T1, GST-tagged recombinant full-length human Pim-2 (Homo sapiens, UniProt Q9P1W9); experiment: PIM-2 Assay (as Example A); conditions: averaged IC50; 4 μM ATP, 1.0 μM PIM2tide, 1.5 nM Pim-2
T1 construct: GST-tagged recombinant full-length human Pim-2; GST
T1 sequence (Q9P1W9 whole entry): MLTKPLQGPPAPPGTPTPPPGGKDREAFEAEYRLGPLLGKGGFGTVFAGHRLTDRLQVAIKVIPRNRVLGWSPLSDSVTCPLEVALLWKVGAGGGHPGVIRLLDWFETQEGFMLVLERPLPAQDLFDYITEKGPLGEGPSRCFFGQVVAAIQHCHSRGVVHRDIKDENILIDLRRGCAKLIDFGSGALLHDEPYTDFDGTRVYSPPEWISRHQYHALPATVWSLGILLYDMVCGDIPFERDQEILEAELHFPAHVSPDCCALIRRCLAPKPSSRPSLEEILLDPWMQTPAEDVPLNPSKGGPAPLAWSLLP
Procedure, shortened: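 Radiometric filter-binding assay: GST-tagged full-length human Pim-2 (1.5 nM) phosphorylates 1.0 μM PIM2tide with 4 μM [γ-33P]ATP for 60 min at 22 °C in pH 7.4 MOPS buffer, 2% DMSO. 10-point 3-fold dilutions from 10 μM top dose; IC50 from 4-parameter fit of percent of control.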

recombinant rat PIM-3 = recombinant rat PIM-3 (Rattus norvegicus, UniProt O70444); experiment: PIM-3 Assay (as Example A); conditions: averaged IC50; 30 μM ATP, 3.75 μM PIM2tide, 0.5 nM PIM-3
Procedure, shortened: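 Recombinant rat PIM-3 (0.5 nM) with 3.75 μM PIM2tide and 30 μM [γ-33P]ATP in MOPS pH 7.4 buffer, 60 min at 22 °C; labelled peptide captured on phosphocellulose filters and counted by scintillation. 10-point curve (top dose 10 μM, 2% DMSO); IC50 from 4-parameter fit of percent of control.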

Sequence of PIM-1 (P11309 whole entry, species assumed): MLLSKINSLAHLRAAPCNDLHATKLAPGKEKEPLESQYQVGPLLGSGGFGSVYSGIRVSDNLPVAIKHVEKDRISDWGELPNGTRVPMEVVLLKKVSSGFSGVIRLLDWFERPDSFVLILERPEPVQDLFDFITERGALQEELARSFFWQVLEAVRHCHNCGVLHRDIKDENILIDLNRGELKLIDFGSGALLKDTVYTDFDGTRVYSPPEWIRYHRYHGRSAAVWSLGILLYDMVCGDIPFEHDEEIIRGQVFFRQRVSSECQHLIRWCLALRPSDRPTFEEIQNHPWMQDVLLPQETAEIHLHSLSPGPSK

Row | IC50 (PIM-1) [nM] | IC50 [1] [nM] | IC50 (recombinant rat PIM-3) [nM] | Compound
1 | 0.2 | 376 | 0.7 | COCCCOc1ccc2ccc(-c3nnc4ccc([C@@H](N5CC[C@H](N)C5)C(F)(F)F)cn34)nc2c1 [Example 275, (S)-1-((R)-2,2,2-trifluoro-1-(3-(7-(3-methoxypropoxy)quinolin-2-yl)-[1,2,4]triazolo[4,3-a]pyridin-6-yl)ethyl)pyrrolidin-3-amine dihydrochloride]
2 | 0.2 | 44 | 0.3 | COC(C)(C)COc1cccc2ccc(-c3nnc4ccc([C@@H](N5CC[C@H](N)C5)C(F)(F)F)cn34)nc12 [Example 276, (S)-1-((R)-2,2,2-trifluoro-1-(3-(8-(2-methoxy-2-methylpropoxy)quinolin-2-yl)-[1,2,4]triazolo[4,3-a]pyridin-6-yl)ethyl)pyrrolidin-3-amine formate]
3 | 0.28 | 231 | 0.7 | CO[C@H](C)COc1ccc2ccc(-c3nnc4ccc([C@@H](N5CC[C@H](N)C5)C(F)(F)F)cn34)nc2c1 [Example 277, (S)-1-((R)-2,2,2-trifluoro-1-(3-(7-((R)-2-methoxypropoxy)quinolin-2-yl)-[1,2,4]triazolo[4,3-a]pyridin-6-yl)ethyl)pyrrolidin-3-amine dihydrochloride]
4 | 0.23 | 180 | 0.4 | CC(C)(O)COc1ccc2ccc(-c3nnc4ccc([C@@H](N5CC[C@H](N)C5)C(F)(F)F)cn34)nc2c1 [Example 278, 1-(2-(6-((R)-1-((S)-3-aminopyrrolidin-1-yl)-2,2,2-trifluoroethyl)-[1,2,4]triazolo[4,3-a]pyridin-3-yl)quinolin-7-yloxy)-2-methylpropan-2-ol dihydrochloride]
5 | 0.96 | 431 | 3.1 | CCOc1cc2nc(-c3nnc4ccc([C@@H](N5CC[C@@H](CN)C5)C(F)(F)F)cn34)ccc2cc1F [Example 279, ((S)-1-((R)-1-(3-(7-ethoxy-6-fluoroquinolin-2-yl)-[1,2,4]triazolo[4,3-a]pyridin-6-yl)-2,2,2-trifluoroethyl)pyrrolidin-3-yl)methanamine hydrochloride]
6 | 0.62 | 418 | 2.5 | CCOc1cc2nc(-c3nnc4ccc([C@@H](N5CC[C@H](CN)C5)C(F)(F)F)cn34)ccc2cc1F [Example 280, ((R)-1-((R)-1-(3-(7-ethoxy-6-fluoroquinolin-2-yl)-[1,2,4]triazolo[4,3-a]pyridin-6-yl)-2,2,2-trifluoroethyl)pyrrolidin-3-yl)methanamine hydrochloride]
7 | 0.26 | 242 | 0.7 | CSCCOc1ccc2ccc(-c3nnc4ccc([C@@H](N5CC[C@H](N)C5)C(F)(F)F)cn34)nc2c1 [Example 281, (S)-1-((R)-2,2,2-trifluoro-1-(3-(7-(2-(methylthio)ethoxy)quinolin-2-yl)-[1,2,4]triazolo[4,3-a]pyridin-6-yl)ethyl)pyrrolidin-3-amine hydrochloride]
8 | 0.28 | 166 | 0.8 | CCOc1cc2nc(-c3nnc4ccc([C@@H](N5CC[C@@H](N)C5)C(F)(F)F)cn34)ccc2cc1F [Example 282, (R)-1-((R)-1-(3-(7-ethoxy-6-fluoroquinolin-2-yl)-[1,2,4]triazolo[4,3-a]pyridin-6-yl)-2,2,2-trifluoroethyl)pyrrolidin-3-amine hydrochloride]
9 | 0.18 | 194 | 0.7 | C[C@@H](O)COc1cccc2ccc(-c3nnc4ccc([C@@H](N5CC[C@H](N)C5)C(F)(F)F)cn34)nc12 [Example 283, (R)-1-(2-(6-((R)-1-((S)-3-aminopyrrolidin-1-yl)-2,2,2-trifluoroethyl)-[1,2,4]triazolo[4,3-a]pyridin-3-yl)quinolin-8-yloxy)propan-2-ol formate]
10 | 0.28 | 50 | 0.4 | COCCc1cc2nc(-c3nnc4ccc([C@H](N5CC[C@](C)(N)C5)C(F)(F)F)cn34)ccc2cc1F [Example 284, (S)-3-methyl-1-((S)-2,2,2-trifluoro-1-(3-(6-fluoro-7-(2-methoxyethyl)quinolin-2-yl)-[1,2,4]triazolo[4,3-a]pyridin-6-yl)ethyl)pyrrolidin-3-amine dihydrochloride]
11 | 0.57 | > 1000 | 8.6 | CC(C)C(=O)OCCOc1cc2nc(-c3nnc4ccc([C@@H](N5CC[C@H](N)C5)C(F)(F)F)cn34)ccc2cc1F [Example 285, 2-(2-(6-((R)-1-((S)-3-aminopyrrolidin-1-yl)-2,2,2-trifluoroethyl)-[1,2,4]triazolo[4,3-a]pyridin-3-yl)-6-fluoroquinolin-7-yloxy)ethyl isobutyrate]
12 | 1.38 | > 1000 | 33 | CC(C)(C)C(=O)OCCOc1cc2nc(-c3nnc4ccc([C@@H](N5CC[C@H](N)C5)C(F)(F)F)cn34)ccc2cc1F [Example 286, 2-(2-(6-((R)-1-((S)-3-aminopyrrolidin-1-yl)-2,2,2-trifluoroethyl)-[1,2,4]triazolo[4,3-a]pyridin-3-yl)-6-fluoroquinolin-7-yloxy)ethyl pivalate]
13 | 0.32 | 178 | 0.7 | CO[C@@H](C)COc1ccc2ccc(-c3nnc4ccc([C@@H](N5CC[C@H](N)C5)C(F)(F)F)cn34)nc2c1 [Example 287, (S)-1-((R)-2,2,2-trifluoro-1-(3-(7-((S)-2-methoxypropoxy)quinolin-2-yl)-[1,2,4]triazolo[4,3-a]pyridin-6-yl)ethyl)pyrrolidin-3-amine dihydrochloride]
14 | 9.42 | > 1000 | 56 | CCC(CC)C(=O)OCCOc1cc2nc(-c3nnc4ccc([C@@H](N5CC[C@H](N)C5)C(F)(F)F)cn34)ccc2cc1F [Example 288, 2-(2-(6-((R)-1-((S)-3-aminopyrrolidin-1-yl)-2,2,2-trifluoroethyl)-[1,2,4]triazolo[4,3-a]pyridin-3-yl)-6-fluoroquinolin-7-yloxy)ethyl 2-ethylbutanoate]
15 | 0.38 | 459 | 1.6 | CCC(C)(C)C(=O)OCCOc1cc2nc(-c3nnc4ccc([C@@H](N5CC[C@H](N)C5)C(F)(F)F)cn34)ccc2cc1F [Example 289, 2-(2-(6-((R)-1-((S)-3-aminopyrrolidin-1-yl)-2,2,2-trifluoroethyl)-[1,2,4]triazolo[4,3-a]pyridin-3-yl)-6-fluoroquinolin-7-yloxy)ethyl 2,2-dimethylbutanoate]
16 | 29.7 | > 1000 | > 100 | CC(C)[C@H](N)C(=O)OCCOc1cc2nc(-c3nnc4ccc([C@@H](N5CC[C@H](N)C5)C(F)(F)F)cn34)ccc2cc1F [Example 290, (S)-2-(2-(6-((R)-1-((S)-3-aminopyrrolidin-1-yl)-2,2,2-trifluoroethyl)-[1,2,4]triazolo[4,3-a]pyridin-3-yl)-6-fluoroquinolin-7-yloxy)ethyl 2-amino-3-methylbutanoate]
17 | 0.65 | 68 | 1.1 | CCOc1cc2nc(-c3nnc4ccc([C@H](N5CC[C@@H](N)C5)C(F)(F)F)cn34)ccc2cc1F [Example 292, (R)-1-((S)-1-(3-(7-ethoxy-6-fluoroquinolin-2-yl)-[1,2,4]triazolo[4,3-a]pyridin-6-yl)-2,2,2-trifluoroethyl)pyrrolidin-3-amine hydrochloride]
18 | 0.4 | 468 | 1.1 | CCOc1cc2nc(-c3nnc4ccc([C@@H](N5CC[C@@](C)(N)C5)C(F)(F)F)cn34)ccc2cc1F [Example 293, (R)-1-((R)-1-(3-(7-ethoxy-6-fluoroquinolin-2-yl)-[1,2,4]triazolo[4,3-a]pyridin-6-yl)-2,2,2-trifluoroethyl)-3-methylpyrrolidin-3-amine hydrochloride]
19 | 0.53 | 94 | 0.7 | CCOc1cc2nc(-c3nnc4ccc([C@H](N5CC[C@@](C)(N)C5)C(F)(F)F)cn34)ccc2cc1F [Example 294, (R)-1-((S)-1-(3-(7-ethoxy-6-fluoroquinolin-2-yl)-[1,2,4]triazolo[4,3-a]pyridin-6-yl)-2,2,2-trifluoroethyl)-3-methylpyrrolidin-3-amine hydrochloride]
20 | 2.55 | 522 | 12 | CCOc1cc2nc(-c3nnc4ccc([C@H](N5CC[C@@H](CN)C5)C(F)(F)F)cn34)ccc2cc1F [Example 295, ((S)-1-((S)-1-(3-(7-ethoxy-6-fluoroquinolin-2-yl)-[1,2,4]triazolo[4,3-a]pyridin-6-yl)-2,2,2-trifluoroethyl)pyrrolidin-3-yl)methanamine hydrochloride]

Row | Compound | IC50 (PIM-1) [nM] | IC50 [1] [nM] | IC50 (recombinant rat PIM-3) [nM]
21 | CO[C@H](C)COc1cc(-c2nnc3ccc([C@@H](N4CC[C@H](N)C4)C(F)(F)F)cn23)nc2ccccc12 [Example 291, (S)-1-((R)-2,2,2-trifluoro-1-(3-(4-((R)-2-methoxypropoxy)quinolin-2-yl)-[1,2,4]triazolo[4,3-a]pyridin-6-yl)ethyl)pyrrolidin-3-amine formate] | 0.19 | 82 | 0.5
